The text below walks through data of patent US20020019527A1 (priority 2000, published 2002).

Broadly, the inhibition is the relative decrease from the control value, in per cent. Low readings indicate little suppression, high ones strong suppression. One may read the % Inhibition as the change of the read-out against control, counted positive when it falls.

The structures appear in SMILES notation. Where a name gives a salt, the structure may show the parent alone.

The target of the assay is T1, Farnesyltransferase (FTase) (Bos taurus, UniProt P29702+P49355).
T1 construct: precipitation from a beef brain homogenate; from tissue; host or cells: bovine brain
T1 sequence (P49355 whole entry, one chain of several): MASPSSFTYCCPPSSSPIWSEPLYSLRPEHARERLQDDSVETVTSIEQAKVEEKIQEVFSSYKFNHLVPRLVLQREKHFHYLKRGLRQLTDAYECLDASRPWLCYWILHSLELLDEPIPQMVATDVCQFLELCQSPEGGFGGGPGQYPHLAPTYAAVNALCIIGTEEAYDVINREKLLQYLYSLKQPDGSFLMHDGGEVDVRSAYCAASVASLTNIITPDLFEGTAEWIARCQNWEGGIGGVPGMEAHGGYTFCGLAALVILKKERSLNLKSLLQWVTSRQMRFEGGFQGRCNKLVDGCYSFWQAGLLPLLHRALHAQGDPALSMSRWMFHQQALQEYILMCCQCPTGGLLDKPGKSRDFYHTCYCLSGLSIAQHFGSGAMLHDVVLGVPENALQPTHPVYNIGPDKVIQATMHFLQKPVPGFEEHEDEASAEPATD
Kind of assay: Farnesyltransferase inhibition (scintillation proximity assay, [3H]-FPP / biotin-K-ras peptide). Format: biochemical, bovine. To be noted: for inhibition at 1 µM: compound at 10^−6 M, bovine FTase, 37° C., 30 minutes. On the procedure:
Farnesyltransferase (FTase) or geranylgeranyltransferase I (GGTase I) fractions were isolated from bovine brains and purified by a series of methods which separate FTase from GGTase I and GGTase I from GGTase II. The methods involved a partial purification of all three enzymes by precipitation from a beef brain homogenate with 30% to 50% saturated […] followed by chromatography on DEAE Sepharose. […] The catalytic purity of each enzyme was assayed separately with substrate acceptor proteins specific for that enzyme. After quickly freezing in liquid nitrogen, the various prenyl transferases were stored at −80° C.
The quenched reactions stood for 1 hour before analysis in a Packard TopCount scintillation counter. Purified compounds were dissolved in 100% ethanol and diluted 10-fold into the assay.
In general terms: In a scintillation proximity assay essentially only radioactivity close to the scintillant gives light.

The compound `Cc1ccccc1-c1cc(C(OCc2noc(C(C)(C)C)n2)c2cncn2C)ccc1C#N` (stereo not shown) [Example 159, 5-(((5-(tert-butyl)-1,2,4-oxadiazol-3-yl)methoxy)(1-methyl-1H-imidazol-5-yl)methyl)-2′-methyl(1,1′-biphenyl)-2-carbonitrile hydrochloride] came in with an inhibition at 1 µM of 91%.

Turning to `Cn1cncc1C(NC1CCN(C(=O)OC(C)(C)C)CC1)c1ccc(C#N)c(-c2cccc3ccccc23)c1` (stereo not shown) [Example 56, tert-butyl 4-(((4-cyano-3-(1-naphthyl)phenyl)(1-methyl-1H-imidazol-5-yl)methyl)amino)-1-piperidinecarboxylate], testing at 1 µM gave an inhibition of 100%. On the same count and under the same terms, under `Cn1cncc1CN(Cc1cccc(C#N)c1)c1ccc(C#N)c(-c2cccc3ccccc23)c1` [Example 266, 4-((3-cyanobenzyl)((1-methyl-1H-imidazol-5-yl)methyl)amino)-2-(1-naphthyl)benzonitrile] stands 100%; under `Cn1cncc1C(OCc1ccc(C#N)cc1)c1ccc(F)c(-c2cccc3ccccc23)c1` (stereo not shown) [Example 112, 4-(((4-fluoro-3-(1-naphthyl)phenyl)(1-methyl-1H-imidazol-5-yl)methoxy)methyl)benzonitrile para-toluenesulfonic acid salt], 100%. Same read-out and setting: under `Cn1cncc1C(OCc1ccc(C#N)cc1)c1ccc(C#N)c(-c2cc3ccccc3s2)c1` (stereo not shown) [Example 203, 2-(1-benzothien-2-yl)-4-(((4-cyanobenzyl)oxy)(1-methyl-1H-imidazol-5-yl)methyl)benzonitrile hydrochloride] stands 86%; under `Cc1ccccc1-c1cc(CN(Cc2ccccc2)Cc2cncn2C)ccc1C#N` [Example 32, 5-((benzyl((1-methyl-1H-imidazol-5-yl)methyl)amino)methyl)-2′-methyl(1,1′-biphenyl)-2-carbonitrile dihydrochloride], 93%; under `Cc1ccccc1-c1cc(C(OCc2ncc(C(F)(F)F)cc2Cl)c2cncn2C)ccc1C#N` (stereo not shown) [Example 182, 5-(((3-chloro-5-(trifluoromethyl)-2-pyridinyl)methoxy)(1-methyl-1H-imidazol-5-yl)methyl)-2′-methyl(1,1′-biphenyl)-2-carbonitrile hydrochloride], 89%. On the same count and under the same terms, under `Cn1cncc1C(NCc1ccc(C#N)cn1)c1ccc(C#N)c(-c2cccc3ccccc23)c1` (stereo not shown) [Example 51, 6-((((4-cyano-3-(1-naphthyl)phenyl)(1-methyl-1H-imidazol-5-yl)methyl)amino)methyl)nicotinonitrile trihydrochloride] stands 100%; under `Cc1ccccc1-c1cc(C(OCc2ccccc2)c2cnnn2C)ccc1C#N` (stereo not shown) [Example 81, 5-((benzyloxy)(1-methyl-1H-1,2,3-triazol-5-yl)methyl)-2′-methyl(1,1′-biphenyl)-2-carbonitrile hydrochloride], 14%. `Cc1ccccc1-c1cc(C(OCc2ccc(F)cc2)c2cncn2C)ccc1C#N` (stereo not shown) [Example 118, 5-(((4-fluorobenzyl)oxy)(1-methyl-1H-imidazol-5-yl)methyl)-2′-methyl(1,1′-biphenyl)-2-carbonitrile hydrochloride] came in with an inhibition at 1 µM of 90%. The same measure, in the same setting: under `Cc1ccccc1-c1cc(C(OCc2cc(F)cc3c2OCOC3)c2cncn2C)ccc1C#N` (stereo not shown) [Example 156, 5-(((6-fluoro-4H-1,3-benzodioxin-8-yl)methoxy)(1-methyl-1H-imidazol-5-yl)methyl)-2′-methyl(1,1′-biphenyl)-2-carbonitrile hydrochloride] stands 92%; under `Cn1cncc1C(NCCc1ccccc1)c1ccc(C#N)c(-c2cccc3ccccc23)c1` (stereo not shown) [Example 31, 4-((1-methyl-1H-imidazol-5-yl)(phenethylamino)methyl)-2-(1-naphthyl)benzonitrile], 100%; under `CN(C)C(=O)c1ccc(COC(c2ccc(C#N)c(-c3cccc4ccccc34)c2)c2cncn2C)cc1` (stereo not shown) [Example 70, 4-(((4-cyano-3-(1-naphthyl)phenyl)(1-methyl-1H-imidazol-5-yl)methoxy)methyl)-N,N-dimethylbenzamide hydrochloride], 100%. In turn, `CCOCn1cncc1C(OCc1ccccc1)c1ccc(C#N)c(-c2cccc3ccccc23)c1` (stereo not shown) [Example 105, 4-((benzyloxy)(1-(ethoxymethyl)-1H-imidazol-5-yl)methyl)-2-(1-naphthyl)benzonitrile hydrochloride] showed an inhibition at 1 µM of 82%. Same read-out and setting: under `Cc1ccccc1-c1cc(C(O)c2cccnc2)ccc1C#N` (stereo not shown) [Example 211, 5-(hydroxy(3-pyridinyl)methyl)-2′-methyl(1,1′-biphenyl)-2-carbonitrile] stands 30%. Turning to `Cc1ccc(COC(c2ccc(C#N)c(-c3ccccc3C)c2)c2cncn2C)cc1.Cl` (stereo not shown) [Example 127], the “% Inhibition at 10^−6M” value stood at 93%.

In turn, `Cn1cncc1C(OCc1ccccc1)c1ccc(C#N)c(-c2ccc3ccccc3c2)c1` (stereo not shown) [Example 92, 4-((benzyloxy)(1-methyl-1H-imidazol-5-yl)methyl)-2-(2-naphthyl)benzonitrile hydrochloride] had an inhibition at 1 µM of 53%. Turning to `Cn1cncc1C(OCc1ccc(Cl)cc1)c1ccc(C#N)c(-c2cccc3ccccc23)c1` (stereo not shown) [Example 66, 4-(((4-chlorobenzyl)oxy)(1-methyl-1H-imidazol-5-yl)methyl)-2-(1-naphthyl)benzonitrile hydrochloride], testing at 1 µM gave an inhibition of 100%. Same read-out and setting: under `Cn1cncc1C(OCc1ccc(C#N)cc1)c1ccc(C#N)c(-c2cccc3cnccc23)c1` (stereo not shown) [Example 44, 4-(((4-cyanobenzyl)oxy)(1-methyl-1H-imidazol-5-yl)methyl)-2-(5-isoquinolinyl)benzonitrile] stands 100%; under `COc1cccc(-c2nc(COC(c3ccc(C#N)c(-c4ccccc4C)c3)c3cncn3C)no2)c1` (stereo not shown) [Example 173, 5-(((5-(3-methoxyphenyl)-1,2,4-oxadiazol-3-yl)methoxy)(1-methyl-1H-imidazol-5-yl)methyl)-2′-methyl(1,1′-biphenyl)-2-carbonitrile hydrochloride], 80%.

Compound `Cc1ccccc1-c1cc(C(OCc2ccc(Br)cc2)c2cncn2C)ccc1C#N` (stereo not shown) [Example 119, 5-(((4-bromobenzyl)oxy)(1-methyl-1H-imidazol-5-yl)methyl)-2′-methyl(1,1′-biphenyl)-2-carbonitrile hydrochloride] returned an inhibition at 1 µM of 93%. Still for that read-out and setting: next, `Cc1ccccc1-c1cc(C(OCc2cccc(C#N)c2)c2cncn2C)ccc1C#N` (stereo not shown) [Example 113, 5-(((3-cyanobenzyl)oxy)(1-methyl-1H-imidazol-5-yl)methyl)-2′-methyl(1,1′-biphenyl)-2-carbonitrile hydrochloride]: 90%; `Cn1cncc1CN(Cc1ccc(C#N)cc1)Cc1ccc(C#N)c(-c2cccc3cccnc23)c1` [Example 114, 4-(((4-cyanobenzyl)((1-methyl-1H-imidazol-5-yl)methyl)amino)methyl)-2-(8-quinolinyl)benzonitrile]: 99%.

In turn, `Cn1cncc1C(OCc1ccc(C(=O)O)cc1)c1ccc(C#N)c(-c2cccc3ccccc23)c1` (stereo not shown) [Example 69, lithium 4-(((4-cyano-3-(1-naphthyl)phenyl)(1-methyl-1H-imidazol-5-yl)methoxy)methyl)benzoate] displayed an inhibition at 1 µM of 100%. The same measure, in the same setting: next, `Cn1cncc1C(OCc1ccc(C(F)(F)F)c(F)c1)c1ccc(C#N)c(-c2ccccc2C(F)(F)F)c1` (stereo not shown) [Example 249, 5-(((3-fluoro-4-(trifluoromethyl)benzyl)oxy)(1-methyl-1H-imidazol-5-yl)methyl)-2′-(trifluoromethyl)(1,1′-biphenyl)-2-carbonitrile hydrochloride]: 98%; `Cc1ccccc1-c1cc(C(OCc2cc3c(cc2Cl)OCO3)c2cncn2C)ccc1C#N` (stereo not shown) [Example 152, 5-(((6-chloro-1,3-benzodioxol-5-yl)methoxy)(1-methyl-1H-imidazol-5-yl)methyl)-2′-methyl(1,1′-biphenyl)-2-carbonitrile hydrochloride]: 89%; `Cn1cncc1C(NCc1ccc(C#N)c(Br)c1)c1ccc(C#N)c(-c2cccc3ccccc23)c1` (stereo not shown) [Example 33, 4-(((3-bromo-4-cyanobenzyl)amino)(1-methyl-1H-imidazol-5-yl)methyl)-2-(1-naphthyl)benzonitrile dihydrochloride]: 100%. Still for that read-out and setting: next, `Cn1cncc1C(OCC1CCCCC1)c1ccc(C#N)c(-c2cccc3ccccc23)c1` (stereo not shown) [Example 14, 4-((cyclohexylmethoxy)(1-methyl-1H-imidazol-5-yl)methyl)-2-(1-naphthyl)benzonitrile hydrochloride]: 100%; `Cn1cncc1C(OCc1ccc(Cl)cc1Cl)c1ccc(C#N)c(-c2cccc3ccccc23)c1` (stereo not shown) [Example 72, 4-(((2,4-dichlorobenzyl)oxy)(1-methyl-1H-imidazol-5-yl)methyl)-2-(1-naphthyl)benzonitrile hydrochloride]: 100%. The compound `Cn1cncc1C(OCc1ccc(C(=O)O)cn1)c1ccc(C#N)c(-c2cccc3cccnc23)c1` (stereo not shown) [Example 245, 6-(((4-cyano-3-(8-quinolinyl)phenyl)(1-methyl-1H-imidazol-5-yl)methoxy)methyl)nicotinic acid trihydrochloride] displayed an inhibition at 1 µM of 90%.

`Cn1cncc1C(OCc1ccc(C#N)cn1)c1ccc(C#N)c(-c2cccc3cccnc23)c1` (stereo not shown) [Example 247, 6-(((4-cyano-3-(8-quinolinyl)phenyl)(1-methyl-1H-imidazol-5-yl)methoxy)methyl)nicotinonitrile trihydrochloride] yielded an inhibition at 1 µM of 95%.
